Measurements taken from patent US6545009B1, “Retinoid-related receptor function regulating agent” (Takeda Chemical Industries, Ltd., priority 1998, dated 2003).

What was measured:
PPARγ-RXRα heterodimer = biological target: T1, PPARγ-RXRα heterodimer (Homo sapiens, UniProt P19793+P37231); assay: PPARγ-RXRα heterodimer ligand activity (luciferase reporter in PPARγ:RXRα:4ERPP/CHO-K1 cells); type: cell-based; conditions: luciferase fold induction, 48 hours
T1 construct: expressed in transfected cells; host or cells: CHO-K1
T1 sequence (P37231 1-477 isoform P37231-2): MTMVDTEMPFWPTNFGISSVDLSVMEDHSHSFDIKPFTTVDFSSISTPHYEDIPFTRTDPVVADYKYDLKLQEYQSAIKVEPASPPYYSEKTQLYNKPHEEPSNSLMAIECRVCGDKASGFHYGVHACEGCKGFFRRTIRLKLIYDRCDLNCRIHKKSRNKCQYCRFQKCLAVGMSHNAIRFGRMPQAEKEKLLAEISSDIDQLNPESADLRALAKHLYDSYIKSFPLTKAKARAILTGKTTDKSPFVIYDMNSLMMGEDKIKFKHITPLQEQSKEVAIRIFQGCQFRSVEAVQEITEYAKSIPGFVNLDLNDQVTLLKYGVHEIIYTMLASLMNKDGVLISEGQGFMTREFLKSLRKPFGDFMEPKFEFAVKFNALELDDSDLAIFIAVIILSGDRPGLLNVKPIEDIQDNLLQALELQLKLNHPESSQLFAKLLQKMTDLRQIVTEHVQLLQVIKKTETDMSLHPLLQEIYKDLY
T1 sequence (P19793 1-462): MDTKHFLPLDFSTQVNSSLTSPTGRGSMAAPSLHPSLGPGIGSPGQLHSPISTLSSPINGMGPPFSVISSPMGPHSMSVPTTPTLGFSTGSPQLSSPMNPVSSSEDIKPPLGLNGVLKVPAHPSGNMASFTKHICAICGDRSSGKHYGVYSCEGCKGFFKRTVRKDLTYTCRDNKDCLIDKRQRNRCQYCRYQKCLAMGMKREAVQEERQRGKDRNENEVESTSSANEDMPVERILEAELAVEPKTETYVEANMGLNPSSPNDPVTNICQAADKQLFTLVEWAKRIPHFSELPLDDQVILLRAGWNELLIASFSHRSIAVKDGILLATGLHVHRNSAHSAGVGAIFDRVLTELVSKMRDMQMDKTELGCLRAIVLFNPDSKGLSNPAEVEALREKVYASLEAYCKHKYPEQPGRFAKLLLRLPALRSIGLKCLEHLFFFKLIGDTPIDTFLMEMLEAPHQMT
Experimental: (§1) PPAR γ:RXR α:4ERPP/CHO-K1 cells obtained in Reference Example 5 were cultured in HAM F12 medium (produced by NISSUI SEIYAKU) containing 10% Fetal bovine serum (produced by Life Technologies, Inc., USA) and then inoculated to a 96-well white plate (produced by Corning Costar Corporation, USA) at the density of 2×10^4 cells/well, and cultured in a CO2 gas incubator at 37° C. overnight.
(§2) After washing the 96 well white plate with PBS (Phosphate-buffered saline), 90 μl of HAM F12 medium containing 0.1% fatty acid-free bovine serum albumin (BSA) and 10 μl of test compound were added to each well, and the plate was cultured in a CO2 gas incubator at 37° C. for 48 hours. After removing the medium, 40 μl of PIKKAGENE 7.5 (produced by Wako Pure Chemical Industries, Ltd.) was added to the well. After stirring, the luciferase activity was determined using Lumistar (produced by BMG Labtechnologies GmbH, Germany).
(§3) A fold induction was calculated based on the luciferase activity of each test compound by estimating the luciferase activity in the non-treatment group as 1. The values of the test compound concentration and the fold induction were used to calculate the EC50 values, the effective concentration of a test compound for 50% of the maximum fold induction, by using PRISM 2.01 (produced by GraphPad Software Inc. USA).
as §1, with “PPARγ:RXRα:4ERPP/CHO-K1” for “PPAR γ:RXR α:4ERPP/CHO-K1”, “Reference.” for “Reference”
as §2, with “7.5 produced” for “7.5 (produced”, “Labtechnologies Gmbh,” for “Labtechnologies GmbH,”
as §3, with “maximum” for “maximum fold”, “USA). The results are shown in [Table 1].” for “USA).”

KKA^y mice = assay: Hypoglycemic and hypolipidemic (hypotriglyceridemic) activities in mice; type: in vivo; conditions: 0.01% in powdered diet, four days
Experimental: Test compound was mixed in a powdered diet (CE-2, Japan Clea) at the concentration of 0.01%, and freely given to KKA^y mice (9 to 12 weeks old, 5 mice in a group) a model of obese and non-insulin-dependent diabetes mellitus (Type 2 diabetes mellitus), for four days. […] During the experimental period, water was given freely Blood was obtained from orbital venous plexus, and glucose and triglyceride levels in plasma were determined enzymatically using L type Wako Glu2 (Wako Pure Chemical Industries, Ltd.) and L type Wako TG·H (Wako Pure Chemical Industries, Ltd.), respectively.
Test compound was mixed in a powdered diet (CE-2, Japan Clea) at the concentration of 0.01%, and freely given to KKA^y mice (9 to 12 weeks old, 5 mice in a group), a model of obese and.non-insulin-dependent diabetes mellitus (Type 2 diabtes mellitus), for four days. During this period, water was given freely. Blood was obtained from orbital venous plexus, and glucose and triglyceride levels in plasma were determined enzymatically using L type Wako Glu2 (Wako Pure Chemical Industries, Ltd.) and L type Wako TG·H (Wako Pure Chemical Industries, Ltd.), respectively.
The value of each treatment group is represented as reduction rate (%) compared with the non-treatment group, which is shown in [Table 2].

SMILES | melting point | other results
O=C(O)c1ccc(-c2cnc(-c3ccc(C(F)(F)F)cc3)s2)cc1 [Example 113, 4-[2-(4-trifluoromethylphenyl)-5-thiazolyl]benzoic acid] |  | EC50 (PPARγ-RXRα heterodimer): 60 nM; Hypoglycemic effect (%) (KKA^y mice; reduction rate of plasma glucose compared with non-treatment group): 45%; Hypolipidemic effect (%) (KKA^y mice; reduction rate of plasma triglyceride compared with non-treatment group): 53%
CCOc1ccc(-c2csc(-c3cccc(C(=O)O)c3)n2)cc1 [Example 96, 3-[4-(4-ethoxyphenyl)-2-thiazolyl]benzoic acid] |  | EC50 (PPARγ-RXRα heterodimer): 1.9 nM
O=C(O)c1ccc(-c2nc(-c3ccc(Cl)cc3)co2)cc1 [Example 8, 4-[4-(4-chlorophenyl)-2-oxazolyl]benzoic acid] |  | EC50 (PPARγ-RXRα heterodimer): 92 nM
CC(C)c1ccc(-c2csc(-c3cccc(C(=O)O)c3)n2)cc1 [Example 100, 3-[4-(4-isopropylphenyl)-2-thiazolyl]benzoic acid] | 214 to 215 °C | EC50 (PPARγ-RXRα heterodimer): 5.1 nM
Cc1cc(-c2csc(-c3ccc(C(=O)O)cc3)n2)c(C)s1 [Example 93, 4-[4-(2,5-dimethyl-3-thienyl)-2-thiazolyl]benzoic acid] | 239 to 240 °C | 
CCOC(=O)c1ccc(-c2coc(-c3ccc(C(F)(F)F)cc3)n2)cc1 [Example 19, ethyl 4-[2-(4-trifluoromethylphenyl)-4-oxazolyl]benzoate] | 168 to 170 °C | 
Cc1cc(-c2csc(-c3cccc(C(=O)O)c3)n2)c(C)o1 [Example 72, 3-[4-(2,5-dimethyl-3-furyl)-2-thiazolyl]benzoic acid] | 174 to 175 °C | EC50 (PPARγ-RXRα heterodimer): 0.6 nM
O=C(O)c1ccc(-c2nc(-c3ccccc3C(F)(F)F)co2)cc1 [Example 15, 4-[4-(2-trifluoromethylphenyl)-2-oxazolyl]benzoic acid] | 264 to 265 °C | 
O=C(O)c1ccc(-c2nc(-c3cccc(C(F)(F)F)c3)co2)cc1 [Example 22, 4-[4-(3-trifluoromethylphenyl)-2-oxazolyl]benzoic acid] | 253 to 254 °C | 
Cc1ccc(-c2csc(-c3ccc(C(=O)O)cc3)n2)cc1 [Example 56, 4-[4-(4-methylphenyl)-2-thiazolyl]benzoic acid] | 289 to 290 °C | 
Br.CCOC(=O)c1ccc(-c2csc(-c3cccnc3)n2)cc1 [Example 31, ethyl 4-[2-(3-pyridyl)-4-thiazolyl]benzoate hydrobromide] | 234 to 236 °C | 
O=C(O)c1cccc(-c2nc(-c3cc(Cl)sc3Cl)cs2)c1 [Example 95, 3-[4-(2,5-dichloro-3-thienyl)-2-thiazolyl]benzoic acid] | 241 to 242 °C | EC50 (PPARγ-RXRα heterodimer): 100 nM
CC(C)c1ccc(-c2csc(-c3ccc(C(=O)O)cc3)n2)cc1 [Example 101, 4-[4-(4-isopropylphenyl)-2-thiazolyl]benzoic acid] | 257 to 258 °C | 
COC(=O)c1ccc(-c2nc(-c3ccc(C)cc3)cs2)cc1 [Example 33, methyl 4-[4-(4-methylphenyl)-2-thiazolyl]benzoate] | 185 to 187 °C | 
Br.CCOC(=O)c1ccc(-c2csc(-c3ccncc3)n2)cc1 [Example 36, ethyl 4-[2-(4-pyridyl)-4-thiazolyl]benzoate hydrobromide] | 248 to 250 °C | 
O=C(O)c1ccc(-c2csc(-c3ccc(Cl)cc3)n2)cc1 [compound 10, 4-[2-(4-chlorophenyl)-4-thiazolyl]benzoic acid] | 284 to 285 °C | 
O=C(O)c1ccc(-c2coc(-c3cccc(C(F)(F)F)c3)n2)cc1 [Example 26, 4-[2-(3-trifluoromethylphenyl)-4-oxazolyl]benzoic acid] | 268 to 269 °C | 
Br.COC(=O)c1ccc(-c2nc(-c3ccncc3)cs2)cc1 [Example 35, methyl 4-[4-(4-pyridyl)-2-thiazolyl]benzoate hydrobromide] | 238 to 240 °C | 
COC(=O)c1ccc(-c2nc(-c3ccc(Br)cc3)cs2)cc1 [Example 75, methyl 4-[4-(4-bromophenyl)-2-thiazolyl]benzoate] | 206 to 207 °C | 
COC(=O)c1ccc(-c2nc(-c3ccc(OC(F)F)cc3)co2)cc1 [Example 18, methyl 4-[4-(4-difluoromethoxylphenyl)-2-oxazolyl]benzoate] | 160 to 161 °C | 
Cc1cc(-c2csc(-c3cccc(C(=O)O)c3)n2)c(C)s1 [Example 92, 3-[4-(2,5-dimethyl-3-thienyl)-2-thiazolyl]benzoic acid] | 155 to 156 °C | 
Cc1ccc(-c2csc(-c3ccc(C(=O)O)cc3)n2)cc1C [Example 90, 4-[4-(3,4-dimethylphenyl)-2-thiazolyl]benzoic acid] | 261 to 262 °C | 
COC(=O)c1ccc(-c2nc(-c3ccc(Cl)cc3)cs2)cc1 [Example 29, methyl 4-[4-(4-chlorophenyl)-2-thiazolyl]benzoate] | 186 to 187 °C | 
O=C(O)c1ccc(-c2nc(-c3cc(Cl)sc3Cl)cs2)cc1 [Example 94, 4-[4-(2,5-dichloro-3-thienyl)-2-thiazolyl]benzoic acid] | 266 to 267 °C | 
CCOC(=O)c1cccc(-c2nc(-c3cc(C)sc3C)cs2)c1 [Example 78, ethyl 3-[4-(2,5-dimethyl-3-thienyl)-2-thiazolyl]benzoate] | 115 to 116 °C | 
COC(=O)c1ccc(-c2nc(-c3cccc(Cl)c3)cs2)cc1 [Example 43, methyl 4-[4-(3-chlorophenyl)-2-thiazolyl]benzoate] | 150 to 151 °C | 
O=C(O)c1cccc(-c2nc(-c3cccc(C(F)(F)F)c3)cs2)c1 [Example 68, 3-[4-(3-trifluoromethylphenyl)-2-thiazolyl]benzoic acid] | 229 to 230 °C | 
O=C(O)c1ccc(-c2nc(-c3cccnc3)cs2)cc1 [Example 57, 4-[4-(3-pyridyl)-2-thiazolyl]benzoic acid] | 303 to 304 °C | 
COc1ccc(-c2csc(-c3cccc(C(=O)O)c3)n2)cc1 [Example 70, 3-[4-(4-methoxyphenyl)-2-thiazolyl]benzoic acid] | 236 to 238 °C | 
